Here are results for 9 molecules from patent US5185331A, “Triazolobenzodiazepines” (Merck & Co., Inc., priority 1991, dated 1993).

Read-outs that look alike come from different tables or passages of the source.

In series [1] the test system is CCK-A receptors. The note with it: pancreas, gallbladder, colon; cited from earlier work.
Series [2] relates to CCK-B receptors. The note with it: brain; cited from earlier work.
The target of series [3] is T1, CCK receptor (pancreas) (Rattus norvegicus, UniProt P30551).
T1 construct: The whole pancreas was dissected free of fat tissue and was homogenized; from tissue; host or cells: rat pancreas (male Sprague-Dawley), washed membrane pellet of homogenate
T1 sequence (P30551 1-444): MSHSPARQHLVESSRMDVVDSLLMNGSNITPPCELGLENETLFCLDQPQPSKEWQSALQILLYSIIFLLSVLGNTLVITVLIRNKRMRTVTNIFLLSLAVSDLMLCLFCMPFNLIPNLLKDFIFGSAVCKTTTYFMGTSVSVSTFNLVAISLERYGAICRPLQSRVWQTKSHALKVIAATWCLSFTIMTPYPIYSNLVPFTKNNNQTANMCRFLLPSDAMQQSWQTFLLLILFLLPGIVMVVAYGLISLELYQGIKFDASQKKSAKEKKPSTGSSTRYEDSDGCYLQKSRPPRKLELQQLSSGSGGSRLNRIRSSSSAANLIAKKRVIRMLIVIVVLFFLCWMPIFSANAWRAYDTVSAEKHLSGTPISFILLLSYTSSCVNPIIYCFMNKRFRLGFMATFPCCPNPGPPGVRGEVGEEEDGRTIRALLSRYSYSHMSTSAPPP
The experiment in a line: 125I-CCK receptor binding (pancreas). Further details: species or system rat (male Sprague-Dawley). The note with it: for effect on the 125I-CCK receptor binding assay: added as protease inhibitor. How it is done:
1. CCK receptor binding (pancreas)
CCK-33 was radiolabeled with ^125 I-Bolton Hunter reagent (2000 Ci/mmole) as described by Sankara et al. (J. Biol. Chem. 254: 9349-9351, 1979). Receptor binding was performed according to Innis and Snyder (Proc. Natl. Acad. Sci. 77: 6917-6921, 1980) with the minor modification of adding the additional protease inhibitors, phenylmethane sulfonyl fluoride and o-phenanthroline. The latter two compounds have no effect on the ^125 I-CCK receptor binding assay.
Male Sprague-Dawley rats (200-350 g) were sacrificed by decapitation. The whole pancreas was dissected free of fat tissue and was homogenized in 20 volumes of ice-cold 50 mM, Tris HCl (pH 7.7 at 25° C.) with a Brinkmann Polytron PT 10. The homogenates were centrifuged at 48,000 g for 10 min. Pellets were resuspended in Tris Buffer, centrifuged as above and resuspended in 200 volumes of binding assay buffer (50 mM Tris HCl, pH 7.7 at 25° C., 5 mM dithiothrietol, 0.1 mM bacitracin, 1.2 mM phenylmethane sulfonyl fluoride and 0.5 mM o-phenanthroline). […] All assays were run in duplicate or triplicate. The reaction mixtures were incubated at 37° C. for 30 minutes and centrifuged in a Beckman Microfuge (4 minutes) immediately after adding 1 ml of ice-cold incubation buffer. The supernatant was aspirated and discarded, pellets were counted with a Beckman gamma 5000. For Scatchard analysis (Ann. N.Y. Acad. Sci. 51: 660, 1949), ^125 I-CCK-33 was progressively diluted with increasing concentrations of CCK-33.

Series [4] concerns the target T2, CCK receptor (brain) (Cavia porcellus, UniProt H0VZC5).
T2 construct: Cerebral cortex was dissected and used as a receptor source; from tissue; host or cells: guinea pig cerebral cortex (male Hartley), washed membrane pellet of homogenate
The experiment in a line: 125I-CCK receptor binding (brain). The note with it: guinea pig cerebral cortex, 125I-CCK-33, 25° C., 2 hours. Further details: species or system guinea pig (male Hartley). How it is done: 2. CCK Receptor Binding (Brain)
CCK-33 was radiolabeled and the binding was performed according to the description for the pancreas method with modification according to Saito et al. (J. Neurochem. 37, 483-490, 1981).
Male Hartley guinea pigs (300-500 g) were sacrificed by decapitation and the brains were removed and placed in ice-cold 50 mM, Tris HCl plus 7.58 g/l Trizma-7.4 (pH 7.4 at 25° C.). Cerebral cortex was dissected and used as a receptor source. Each gram of fresh guinea pig brain tissue was homogenized in 10 ml of Tris Trizma buffer with a Brinkman polytron PT-10. The homogenates were centrifuged at 42,000 g for 15 min. […] All assays were run in duplicate or triplicate. The reaction mixtures were incubated at 25° C. for 2 hours and centrifuged in a Beckman Microfuge (4 minutes) immediately after adding 1 ml of ice-cold incubation buffer. The supernatant was aspirated and discarded, pellets were counted with a Beckman gamma 5000.

For series [5] the following is noted: rat, brain synaptosomal fraction; cited from earlier work.

T2 sequence (H0VZC5 entry or part of it): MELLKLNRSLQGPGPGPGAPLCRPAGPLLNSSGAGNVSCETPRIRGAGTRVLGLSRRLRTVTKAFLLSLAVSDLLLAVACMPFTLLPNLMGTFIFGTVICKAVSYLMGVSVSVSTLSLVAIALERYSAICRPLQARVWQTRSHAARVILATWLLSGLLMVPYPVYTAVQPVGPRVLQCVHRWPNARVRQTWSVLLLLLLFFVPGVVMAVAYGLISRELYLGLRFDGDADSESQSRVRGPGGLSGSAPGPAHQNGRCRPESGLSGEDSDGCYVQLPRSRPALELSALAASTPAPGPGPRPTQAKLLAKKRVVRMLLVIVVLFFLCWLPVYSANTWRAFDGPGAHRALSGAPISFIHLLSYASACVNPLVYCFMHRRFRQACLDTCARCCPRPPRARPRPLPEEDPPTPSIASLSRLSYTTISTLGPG

On to gastrin, for which the “affinity for CCK-A receptors” value in series [1] is recorded as “lower affinity”.
With `CSCC[C@H](NC(=O)[C@H](Cc1c[nH]c2ccccc12)NC(=O)CCNC(=O)OC(C)(C)C)C(=O)N[C@@H](CC(=O)O)C(=O)N[C@@H](Cc1ccccc1)C(N)=O` [pentagastrin], the “affinity for CCK-B receptors” value in series [2] is reported as “high affinity”.
Turning to `O=C(Nc1ccc(Cl)cc1)NC1N=C(c2ccccc2)c2ccccc2-n2cnnc21` (centres unmarked) [Compound 11, N-(4-Chlorophenyl)-N'-(6-phenyl-4H-[1,2,4]triazolo-[4,3-a][1,4]benzodiazepin-4-yl)urea], the figures for the IC50 in series [3] and in series [4] were 120 nM and 480 nM, respectively.
As to `c1cnc2c(c1)ccc1cccnc12` [o-phenanthroline], the “effect on the 125I-CCK receptor binding assay” value in series [3] is “no effect”.
Take CCK-4: the “affinity for CCK-A receptors” value in series [1] is on record as “lower affinity”. Besides, in series [2], the “affinity for CCK-B receptors” value is listed as “high affinity”.
Regarding `Cc1nnc2n1-c1ccccc1C(c1ccccc1)=NC2NC(=O)Nc1ccc(Cl)cc1` (centres unmarked) [Compound 12, N-(4-Chlorophenyl)-N'-(1-methyl-6-phenyl-4H-[1,2,4]triazolo[4,3-a][1,4]benzodiazepin-4-yl)urea], the IC50 in series [3] (rat pancreas membranes, 125I-CCK-33, 37° C., 30 minutes) was determined as 82 nM; in series [4] it was 80 nM.
For `CSCC[C@H](NC(=O)[C@H](Cc1ccc(OS(=O)(=O)O)cc1)NC(=O)[C@@H](N)CC(=O)O)C(=O)NCC(=O)N[C@@H](Cc1c[nH]c2ccccc12)C(=O)N[C@@H](CCSC)C(=O)N[C@@H](CC(=O)O)C(=O)N[C@@H](Cc1ccccc1)C(N)=O` [CCK-8s, H-Asp-Tyr(SO3 H)-Met-Gly-Trp-Met-Asp-Phe-NH2], in series [5], the half-life result is recorded as “less than 1 hour”. The “affinity for CCK-A receptors” value in series [1] was “high affinity”. Besides, the “affinity for CCK-B receptors” value in series [2] is reported as “high affinity”.
As to “CCK-8d: the corresponding desulphated fragment”, the “affinity for CCK-A receptors” value in series [1] is reported as “lower affinity”.
In the case of `O=S(=O)(F)Cc1ccccc1` [phenylmethane sulfonyl fluoride], the “effect on the 125I-CCK receptor binding assay” value in series [3] is given as “no effect”.
